Measured values: patent US20240124417A1, “COMPOUNDS USEFUL AS IMMUNOMODULATORS” (Bristol-Myers Squibb Company, priority 2019, published 2024)

Target: T1, PD-1/PD-L1 (Homo sapiens, UniProt Q9NZQ7)
T1 construct: TVMV protease site linker (C); made in house; host or cells: HEK293T cells
Test: PD-1/PD-L1 Homogenous Time-Resolved Fluorescence (HTRF) binding assay
Conditions: PD-L1-His 10 nM, PD-1-Ig 20 nM
How it was run: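 Inhibitors pre-incubated 15 min with PD-L1-His extracellular domain (10 nM final) in dPBS with 0.1% BSA and 0.05% Tween-20, then PD-1-Ig (20 nM final) added for a further 15 min. Read-out by HTRF with europium cryptate anti-Ig (1 nM) and APC anti-His (20 nM). Related pairs: PD-1-Ig/PD-L2-His (20/5 nM), CD80-His/PD-L1-Ig (100/10 nM).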

T1 sequence (Q9NZQ7 18-239): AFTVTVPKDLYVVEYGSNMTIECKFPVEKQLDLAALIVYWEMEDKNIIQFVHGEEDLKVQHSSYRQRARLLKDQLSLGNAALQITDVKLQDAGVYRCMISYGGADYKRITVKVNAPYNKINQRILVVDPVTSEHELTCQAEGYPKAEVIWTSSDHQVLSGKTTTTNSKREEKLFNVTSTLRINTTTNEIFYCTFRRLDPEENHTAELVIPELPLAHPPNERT

IC50 | Structure (SMILES)
4.1 nM | Cc1c(COc2cc(OCc3cncc(C#N)c3)c(CN(C)Cc3ccnn3C)cc2Cl)cccc1-c1cccc(OCCCN2CC[C@@H](O)C2)c1C [Example 2559, (R)-5-((4-chloro-5-((3′-(3-(3-hydroxypyrrolidin-1-yl)propoxy)-2,2′-dimethyl-[1,1′-biphenyl]-3-yl)methoxy)-2-((methyl((1-methyl-1H-pyrazol-5-yl)methyl)amino)methyl)phenoxy)methyl)nicotinonitrile]
0.9 nM | Cc1c(COc2cc(OCc3cncc(C#N)c3)c(CN3CCc4c(ncn4C)C3)cc2Cl)cccc1-c1cccc(OCCCN2CC[C@@H](O)C2)c1C [Example 2502]
6 nM | Cc1c(COc2cc(OCc3cncc(C#N)c3)c(CNCc3cccnn3)cc2Cl)cccc1-c1cccc(OCCCN2CC[C@@H](O)C2)c1C [Example 2021, (R)-5-((4-chloro-5-((3′-(3-(3-hydroxypyrrolidin-1-yl)propoxy)-2,2′-dimethyl-[1,1′-biphenyl]-3-yl)methoxy)-2-(((pyridazin-3-ylmethyl)amino)methyl)phenoxy)methyl)nicotinonitrile]

Second part, the compound before the results:

Structure (SMILES) | IC50
Cc1c(COc2cc(OCc3cncc(C#N)c3)c(CNCc3c[nH]cn3)cc2Cl)cccc1-c1cccc(OCC2CCCN(CCC(F)(F)F)C2)c1Cl (stereo not drawn) [Example 2065, 5-((2-((((1H-imidazol-4-yl)methyl)amino)methyl)-4-chloro-5-((2′-chloro-2-methyl-3′-((1-(3,3,3-trifluoropropyl)piperidin-3-yl)methoxy)-[1,1′-biphenyl]-3-yl)methoxy)phenoxy)methyl)nicotinonitrile] | 28 nM
Cc1c(COc2cc(OCc3cnccn3)c(CNCc3c[nH]cn3)cc2Cl)cccc1-c1cccc(OCC2CCCN(C)C2)c1Cl (stereo not drawn) [Example 2060, N-((1H-imidazol-4-yl)methyl)-1-(5-chloro-4-((2′-chloro-2-methyl-3′-((1-methylpiperidin-3-yl)methoxy)-[1,1′-biphenyl]-3-yl)methoxy)-2-(pyrazin-2-ylmethoxy)phenyl)methanamine] | 1.9 nM
COCc1noc(CNCc2cc(Cl)c(OCc3cccc(-c4cccc(OCCCN5CC[C@@H](O)C5)c4C)c3C)cc2OCc2cncc(C#N)c2)n1 [Example 2558, (R)-5-((4-chloro-5-((3′-(3-(3-hydroxypyrrolidin-1-yl)propoxy)-2,2′-dimethyl-[1,1′-biphenyl]-3-yl)methoxy)-2-((((3-(methoxymethyl)-1,2,4-oxadiazol-5-yl)methyl)amino)methyl)phenoxy)methyl)nicotinonitrile] | 6.4 nM
CC(=O)NC1CCN(CCCOc2cccc(-c3cccc(COc4cc(OCc5cncc(C#N)c5)c(CNCC(C)c5nnn[nH]5)cc4Cl)c3C)c2C)CC1 (stereo not drawn) [Example 1050, N-(1-(3-((3′-((4-(((2-(1H-Tetrazol-5-yl)propyl)amino)methyl)-2-chloro-5-((5-cyano-pyridin-3-yl)methoxy)phenoxy)methyl)-2,2′-dimethyl-[1,1′-biphenyl]-3-yl)oxy)propyl)-piperidin-4-yl)acetamide] | 0.7 nM
Cc1c(COc2cc(OCc3cncc(C#N)c3)c(CNCC(C)c3nnn[nH]3)cc2Cl)cccc1-c1cccc(OCCCN2CC[C@@H](O)C2)c1C (stereo partly drawn) [Example 1013, 5-((2-(((2-(1H-Tetrazol-5-yl)propyl)amino)methyl)-4-chloro-5-((3′-(3-((R)-3-hydroxy-pyrrolidin-1-yl)propoxy)-2,2′-dimethyl-[1,1′-biphenyl]-3-yl)methoxy)phenoxy)methyl)-nicotinonitrile] | 3.2 nM
Cc1n[nH]c(C)c1C(NCc1cc(Cl)c(OCc2cccc(-c3cccc(OCC4CCCN(C)C4)c3Cl)c2C)cc1OCc1cncc(C#N)c1)C(=O)O (stereo not drawn) [Example 1027, 2-((5-Chloro-4-((2′-chloro-2-methyl-3′-((1-methylpiperidin-3-yl)methoxy)-[1,1′-biphenyl]-3-yl)methoxy)-2-((5-cyanopyridin-3-yl)methoxy)benzyl)amino)-2-(3,5-dimethyl-1H-pyrazol-4-yl)acetic acid] | 1.1 nM
